According to article PMC5587909, “Inhibition of the ATP Synthase Eliminates the Intrinsic Resistance of Staphylococcus aureus towards Polymyxins” (mBio, 2017):
Converted amounts (≈) assume the structure as drawn.

Columns and labels:
[1] = system: S. aureus; details: cited from earlier work
[2] = system: S. aureus JE2 vraG mutant; type: cell-based, Staphylococcus aureus; details: 2-fold broth microdilution in TSB (100 µl), inoculum approx. 5 × 10^5 cells/ml, 37°C, 22 h
Source text: (§1) The strains used in this study include S. aureus strain JE2 (plasmid-cured derivative of USA300 LAC) and all derivative strains within the Nebraska Transposon Mutant Library (NTML), consisting of 1,920 unique transposon mutants with inactivation of nonessential genes ([15]). The bursa aurealis transposon used to create the collection contains the resistance cassette ermB, which confers resistance to erythromycin ([15]). Additionally we used S. aureus SA113 and two derivatives, SA113 ΔdltA ([9]) and SA113 ΔmprF ([10]). All bacterial strains were cultured at 37°C in tryptic soy broth (TSB) or on tryptic soy agar (TSA), with antimicrobial agents added as indicated. Two methods have been employed to determine MICs to various antimicrobial agents. (i) A 2-fold broth microdilution assay in TSB (100 µl) with an initial inoculum of approximately 5 × 10^5 cells/ml was employed to determine the MICs of polymyxin B sulfate (Sigma), gallidermin (Santa Cruz Biotechnology), nisin (Sigma), bacitracin (Sigma), and LL-37 (Isca Biochemicals). (ii) An Etest (BioMérieux) performed on TSA plates was employed to determine MICs for polymyxin B, colistin, ciprofloxacin, oxacillin, linezolid, gentamicin, vancomycin, and daptomycin. The MIC was determined upon incubation at 37°C for 22 h. When indicated, the Etest (BioMérieux) was performed on Mueller-Hinton agar plates (cation adjusted for calcium and magnesium).

[3] = system: S. aureus JE2 atpA mutant; type: cell-based, Staphylococcus aureus; details: 2-fold broth microdilution in TSB (100 µl), inoculum approx. 5 × 10^5 cells/ml, 37°C, 22 h
Source text: as §1

[4] = system: S. aureus JE2 graR mutant; type: cell-based, Staphylococcus aureus
Source text: as §1

[5] = system: S. aureus JE2 (WT); type: cell-based, Staphylococcus aureus; details: 2-fold broth microdilution in TSB (100 µl), inoculum approx. 5 × 10^5 cells/ml, 37°C, 22 h
Source text: as §1

[6] = system: S. aureus JE2 vraF mutant; type: cell-based, Staphylococcus aureus
Source text: as §1

[7] = system: mitochondrial ATP synthase; details: cited from earlier work
[8] = system: S. aureus JE2 (WT); test: Kill curve experiment, polymyxin B with or without oligomycin A; type: cell-based, Staphylococcus aureus; details: WT JE2 in TSB; oligomycin A alone at 8 μg/ml
Source text: The ATP synthase is a well-described protein complex, and multiple inhibitors have been identified that interfere with its function—e.g., the macrolide oligomycin A ([32]). […] The combinatory efficacy of PMB and oligomycin A is similar to the observed killing efficacy of PMB against the atpA mutant.
FIG 4 Improved killing efficacy of PMB upon inhibition of the ATP synthase. […] The data represent the average from three measurements, with error bars showing 95% confidence intervals.
From overnight cultures of S. aureus JE2 and the derivative atpA mutant, 100 μl was diluted into 900 μl fresh TSB medium in a Falcon tube and grown for 1 h for the cells to reach the early exponential phase. After 1 h, the cultures were diluted into 10 ml fresh TSB medium in 100-ml Erlenmeyer flasks, reaching an initial cell count of approximately 10^6 cells/ml. Oligomycin A (Sigma) was added to flasks as indicated at a concentration of 8 μg/ml. […] CFU were determined on TSA plates before addition of oligomycin A (time zero [T0]), before addition of polymyxin B (time 30 min [T30]), and every hour for the following 4 h.

COc1nc2ccc(Br)cc2cc1[C@@H](c1ccccc1)[C@@](O)(CCN(C)C)c1cccc2ccccc12 [Bedaquiline, bedaquiline]
activity against S. aureus [1]: limited or no activity

CC[C@H](C)[C@H](NC(=O)[C@H](CCCCN)NC(=O)[C@H](CCC(=O)O)NC(=O)[C@H](CCCCN)NC(=O)[C@H](CO)NC(=O)[C@H](CCCCN)NC(=O)[C@H](CCCNC(=N)N)NC(=O)[C@H](Cc1ccccc1)NC(=O)[C@H](Cc1ccccc1)NC(=O)[C@H](CC(=O)O)NC(=O)CNC(=O)[C@H](CC(C)C)NC(=O)[C@@H](N)CC(C)C)C(=O)NCC(=O)N[C@@H](CCCCN)C(=O)N[C@@H](CCC(=O)O)C(=O)N[C@@H](Cc1ccccc1)C(=O)N[C@@H](CCCCN)C(=O)N[C@@H](CCCNC(=N)N)C(=O)N[C@H](C(=O)N[C@H](C(=O)N[C@@H](CCC(N)=O)C(=O)N[C@@H](CCCNC(=N)N)C(=O)N[C@H](C(=O)N[C@@H](CCCCN)C(=O)N[C@@H](CC(=O)O)C(=O)N[C@@H](Cc1ccccc1)C(=O)N[C@@H](CC(C)C)C(=O)N[C@@H](CCCNC(=N)N)C(=O)N[C@@H](CC(N)=O)C(=O)N[C@@H](CC(C)C)C(=O)N[C@H](C(=O)N1CCC[C@H]1C(=O)N[C@@H](CCCNC(=N)N)C(=O)N[C@H](C(=O)N[C@@H](CCC(=O)O)C(=O)N[C@@H](CO)C(=O)O)[C@@H](C)O)C(C)C)[C@@H](C)CC)C(C)C)[C@@H](C)CC [LL-37]
MIC, vraG [2]: 128 µg/mL (≈ 28.5 µM)
MIC, atpA [3]: >128 µg/mL
MIC, graR ([4]; 2-fold broth microdilution in TSB (100 µl), inoculum approx. 5 × 10^5 cells/ml, 37°C, 22 h, graR mutant): 64 µg/mL (≈ 14.2 µM)
fold increased sensitivity relative to WT ([4]; graR mutant vs WT JE2, broth microdilution in TSB): at least 2 fold
MIC, WT [5]: >128 µg/mL
MIC, vraF ([6]; 2-fold broth microdilution in TSB (100 µl), inoculum approx. 5 × 10^5 cells/ml, 37°C, 22 h, vraF mutant): 64 µg/mL (≈ 14.2 µM)
fold increased sensitivity relative to WT ([6]; vraF mutant vs WT JE2, broth microdilution in TSB): at least 2 fold

oligomycin A
inhibition of the mitochondrial ATP synthase (nonselective) [7]: inhibits the mitochondrial ATP synthase
killing efficacy (CFU over time) [8]: did not display any killing efficacy
